In brackets after ≈: the same amount, converted by molar mass.
How the values were obtained:
[1] = Solubilization in water or 30% PEG-8000/water, freeze-drying and reconstitution; concentration by HPLC (Example 1); conditions: for PEG solutions, freeze dried and reconstituted Test 1 / PEG solutions, freeze dried and reconstituted Test 2: 30% PEG-8000, reconstituted with water; for PEG solutions, freeze dried and reconstituted Test 1 / PEG solutions, freeze dried and reconstituted Test 2 / CPEG / Cw: target 200 µM; for CPEG: 30% PEG-8000 / water, 50-fold dilution of 10 mM DMSO stock; for CPEG / Cw: filtered 0.45 µm; for Cw: aqueous solution, 50-fold dilution of 10 mM DMSO solution; for PEG solutions, reconstituted and diluted 1:10 Test 1 / PEG solutions, reconstituted and diluted 1:10 Test 2: diluted 1:10 with water, target 20 µM; for PEG solutions, reconstituted and diluted 1:10 Test 1: 3% PEG-8000, Test 1; for PEG solutions, reconstituted and diluted 1:10 Test 2: 3% PEG-8000, Test 2
Description: Materials and methods. […] The following compounds were obtained from Fluka - Riedel deHaën: phenylacetic acid, p-toluenesulphonamide, carbazol (Vetranal analytical standard), Polyethylene glycol 8000. Stock solutions were prepared in dimethylsulfoxide (Sigma-Aldrich, ACS spectrophotometric grade) at 10 mM concentration by weighing an appropriate amount of each compound and adding the computed DMSO volume with a calibrated variable volume pipet (Eppendorf). A solution of PEG-8000 (30%, w/w) in water in a 50 mL centrifuge tube was prepared by weighing 15.0 g of PEG-8000 and adding water up to 50.0 g.
Solutions were analysed using an Agilent 1100 chromatograph with the following HPLC method: • Column: Waters X-terra 4.6x50 mm, 3.5 µm • Mobile phase A: water/acetonitrile (97/3 by volume) containing 0.1% trifluoroacetic acid • Mobile phase B: acetonitrile containing 0.1% trifluoroacetic acid • Flow = 1 mL/min, injection = 10 µL, detection wavelength 220 nm (8 nm bandwidth) with reference at 400 nm (40 nm bandwidth). • Gradient 1: from 100% A to 60% A in 6 min, down to 40% A in 1 min, followed by 3 min re-equilibration at 100% A. • Gradient 2: from 70% A to 30% A in 6 min, 1 min isocratic elution at 30% A, followed by 3 min re-equilibration at 70% A.
The following solutions were prepared by 50-fold dilution of the DMSO stock solutions: • Target concentration: 200 µM in water • Target concentration: 200 µM in 30% PEG-8000 / water
After equilibration (1 day at room temperature), all solutions were filtered through 0.45 µm cellulose filters (ProFill, 25 mm syringe filters, Alltech). Aliquots were placed in HPLC vials and submitted to analysis. Two 1 mL aliquots of each 30% PEG solution were placed into 14x100 mm pre-weighed test tubes. These tubes were weighed, and placed in liquid nitrogen to freeze the solution, and finally submitted to freeze-drying in a Lio-5P apparatus (5Pascal, Trezzano sul Naviglio, Italy). After one day, the tubes were weighed and water was added with a micropipette in order to match the original solution weight. A fraction of these solutions was diluted 1:10 with water (target concentration: 20 µM).

[2] = decimal logarithm of the molar aqueous solubility; cited from earlier work
[3] = Solubility in various aqueous PEG media, by HPLC (Example 2); conditions: aqueous with cosolvent or surfactant or cyclodextrin, kinetic from dmso stock, Average solubility, N=3
Description: Materials and methods. […] The following compounds were obtained from Fluka - Riedel deHaën: carbazol (Vetranal analytical standard), Polyethylene glycol 8000, Polyethylene glycol 20000, Polyethylene glycol 400. […] Solutions of PEG-8000 and PEG-20000 in water (30%, w/w) were prepared in 50 mL centrifuge tubes by weighing 15.0 g of the corresponding PEG and adding water up to 50.0 g. A solution containing PEG-8000 (10%, w/w) and PEG-400 (20%, w/w) was similarly prepared by mixing 5 g PEG-8000 with […], and adding water up to 50 g.
Results. […] Starting from DMSO stock solutions, dilute solutions with a nominal concentration of 200 µM were prepared by 50-fold dilution with one of three different aqueous PEG medium. After equilibration for 1 day at room temperature, these solutions were filtered through 0.45 µm cellulose filters (ProFill, 25 mm syringe filters, Alltech). Aliquots were placed in HPLC vials and submitted to analysis.

Structure (SMILES) | PEG solutions, freeze dried and reconstituted Test 1 [1] [µM] | PEG solutions, freeze dried and reconstituted Test 2 [1] [µM] | CPEG [1] [µM] | Cw [1] [µM] | PEG solutions, reconstituted and diluted 1:10 Test 1 [1] [µM] | PEG solutions, reconstituted and diluted 1:10 Test 2 [1] [µM] | LogSw [2] | measured concentration after ten-fold dilution of the reconstituted PEG lyophilized samples ([1]; 3% PEG-8000, range over both tests and both compounds) [µM] | solubility at 1 day ([3]; 20% PEG-400 + 10% PEG-8000, nominal 200 µM) [µM] | solubility at 1 day ([3]; 30% PEG-8000, nominal 200 µM) [µM] | solubility at 1 day ([3]; 30% PEG-20000, nominal 200 µM) [µM]
O=C(O)Cc1ccccc1 [Compound 1, Phenylacetic acid] | 181 | 187 | 198 | 200 | 17.7 | 17.8 | -0.89 |  |  |  | 
Cc1ccc(S(N)(=O)=O)cc1 [Compound 2, p-Toluenesulphonamide] |  |  |  |  |  |  | -1.74 |  |  |  | 
CCOC(=O)c1ccc(O)cc1 [Compound 3, Ethyl-p-hydroxybenzoate] |  |  |  |  |  |  | -2.35 |  |  |  | 
CC(=O)CC(c1ccccc1)c1c(O)c2ccccc2oc1=O (stereo not drawn) [Compound 6, Warfarin] | 199 | 199 | 198 | 155 | 20.2 | 20.4 | -4.26 |  |  |  | 
c1ccc2c(c1)[nH]c1ccccc12 [Compound 8, Carbazol] | 195 | 195 | 196 | 8.6 | 19.0 | 19.2 | -5.27 | 19.0 to 19.4 | 187 | 194 (≈ 32.4 µg/mL) | 188 (≈ 31.4 µg/mL)

From EP1908513A1, “Method for preparing and using chemical collections” (priority 2006, dated 2008)
